Article PMC10891983, “First Description of Marinoquinoline Derivatives’ Activity against Toxoplasma gondii” (Pharmaceutics, 2024)
“Also recorded” adds a separate entry of the source.

Experiments:
T. gondii tachyzoites = test: microbe, parasite or virus in culture; type: cell-based, Toxoplasma gondii; settings: for EC50: Toxoplasma gondii, T. gondii RH-2F1 tachyzoites in HFF, 72 h, ± SD of three independent experiments, read-out: EC50 (Half Effective Concentration); for SI (Selectivity index): CC50 (HFF)/EC50 (T. gondii)
ME49 strain T. gondii = test: Chronic toxoplasmosis model, ME49-infected C57BL/6 mice
From the text: Male Swiss mice (Mus musculus) (8 weeks old) for the acute toxoplasmosis experiments and female C57BL/6 mice (4 weeks old) for the chronic toxoplasmosis experiments were sourced from the animal breeding facility at the Universidade Federal de Alfenas, Brazil. Strict adherence to the principles of good animal practice, as outlined in the Brazilian Guidelines for Care and Utilization of Animals by the Conselho Nacional de Controle e Experimentação Animal (CONCEA), was observed during the handling of all animals. The study protocol received approval from the Ethics Committee for Animal Experimentation at the Universidade Federal de Alfenas under Protocols 033/2021 and 0006/2023. All necessary precautions were taken to minimize any potential suffering experienced by the animals.
The mice were infected with 10 cysts of the ME49 strain of T. gondii via intraperitoneal inoculation, following the protocol by [16]. After a 40-day infection period, random assignment was used to divide the mice into distinct experimental groups, each consisting of four mice. These experimental groups were subjected to different treatments: MQ-1, administered either at a dosage of 25 mg/kg/day or 12.5 mg/kg/day, prepared with a 4% DMSO solution in water. […] The administration was carried out via oral gavage, with a final volume of 100 µL per dose. For the control group, 100 µL of the vehicle used to dilute MQ-1 (4% DMSO in water) was administered. […] On the 51st day post-infection, euthanasia was performed for all animals, followed by brain tissue collection for RNA extraction and quantification, as detailed in [18]. DNA extraction and purification were carried out using the PureLink Genomic DNA Minikit (Invitrogen. Carlsbad, CA, USA) following the manufacturer’s instructions. […] After extraction, RNA samples were immediately processed for cDNA synthesis and underwent quantitative real-time (qPCR) analysis. […]
Data on parasite burden in acute and chronic infection in treated and untreated groups were analyzed for statistical significance using One-Way ANOVA, followed by the Tukey post-test. […]

[1] = Assay for evaluating mammalian cytotoxicity (MTT); type: cell-based; settings: human, human foreskin fibroblast (HFF) cells, ± SD of three independent experiments, read-out: CC50 (Half Cytotoxic Concentration)
[2] = tested on: RH strain T. gondii tachyzoites; type: in vivo
Procedure: To evaluate the effectiveness of MQ-1 in treating acute T. gondii infection in vivo, a murine model was employed, utilizing Swiss mice in accordance with established protocols. […] Treatment involved the administration of compounds dissolved in a 4% DMSO solution in water, and was conducted one day post-infection. […] . As for the control group, they were administered 100 µL of the vehicle utilized for MQ-1 dilution, consisting of a 4% DMSO solution in water. Continuous monitoring of the mice included daily assessments for signs of toxoplasmosis. These signs encompassed impaired mobility, feeding difficulties, weight loss, self-mutilation, and severe ascites. […] The implementation of humane endpoints aimed to mitigate any potential pain or suffering in the animals, leading to their euthanasia when necessary. At the end of the experimental period, euthanasia was performed on all remaining mice, and the peritoneal parasite load was estimated using a Neubauer chamber.

[3] = vs pyrimethamine 12.5 mg/kg/day

COc1ccc2c(c1)nc(-c1c[nH]c3ccccc13)c1[nH]ccc12 [MQ-1]
EC50 (T. gondii tachyzoites): 1.46 ± 0.45 µM
cerebral parasitic load vs vehicle (ME49 strain T. gondii; C57BL/6 mice, ME49 strain, 25 mg/kg/day oral for 10 consecutive days from day 41 post-infection, qPCR, p < 0.01, 25 mg/kg/day): significantly reduced; also recorded: significant (p < 0.01) reduction
difference between the tested compound and the standard drug, chronic evaluation (ME49 strain T. gondii; [3]): no statistically significant differences
CC50 at 72 h [1]: 30.5 ± 1.8 µM
signs of toxicity throughout the treatment ([2]; Swiss mice, 12.5 mg/kg/day oral for 8 days): No signs of toxicity were observed
difference between the tested compound and the standard drug, acute evaluation [2, 3]: no statistically significant differences

COc1ccc2c(c1)nc(-c1ccc(N3CCNCC3)cc1)c1[nH]ccc12 [MQ-2]
SI (Selectivity index) (T. gondii tachyzoites): 17.39
EC50 (T. gondii tachyzoites): 1.67 ± 0.4 µM
CC50 at 72 h [1]: 29.1 ± 0.84 µM

CC(C)(C)OC(=O)Nc1ccc(-c2nc3ccc(Cl)cc3c3cc[nH]c23)cc1 [MQ-3]
SI (Selectivity index) (T. gondii tachyzoites): 3.35
EC50 (T. gondii tachyzoites): 1.6 ± 0.54 µM
CC50 at 72 h [1]: 5.36 ± 0.91 µM

CC(C)(C)OC(=O)Nc1ccc(-c2nc3ccc(OC(F)(F)F)cc3c3cc[nH]c23)cc1 [MQ-4]
SI (Selectivity index) (T. gondii tachyzoites): 3.18
EC50 (T. gondii tachyzoites): 1.31 ± 0.31 µM
CC50 at 72 h [1]: 4.16 ± 1.05 µM

COc1ccc2c(c1)nc(-c1ccc(N3CCC(F)CC3)cc1)c1[nH]ccc12 [MQ-5]
SI (Selectivity index) (T. gondii tachyzoites): 3.52
EC50 (T. gondii tachyzoites): 1.43 ± 0.37 µM
CC50 at 72 h [1]: 5.05 ± 1.63 µM

COc1ccc2c(c1)nc(-c1ccc(Br)cn1)c1[nH]ccc12 [MQ-6]
SI (Selectivity index) (T. gondii tachyzoites): 7.55
EC50 (T. gondii tachyzoites): 3.78 ± 0.67 µM
CC50 at 72 h [1]: 28.6 ± 7.33 µM

CCc1nc(N)nc(N)c1-c1ccc(Cl)cc1 [PYR, pyrimethamine, reference compound]
EC50 (T. gondii tachyzoites): 0.29 ± 0.19 µM
CC50 at 72 h [1]: 68.1 ± 4.26 µM
